Experimental data as given in patent US7994318B2, “Coumarin derivatives useful as TNFα inhibitors” (Chugai Seiyaku Kabushiki Kaisha, priority 2000, dated 2011).

system: TNFα; assay: In vitro assay: TNFα ELISA of supernatants of LPS-stimulated human PBMC; assay type: cell-based; conditions: Homo sapiens, PBMC, human PBMC pretreated with drug 60 min, stimulated with LPS (E. coli O55:B5) 100 ng/mL, overnight culture, TNFα in supernatant by ELISA; read-out: 50% Inhibition of TNFα level (IC50)
Procedure: Enzyme-linked immunosorbent assays (ELISA) for TNFα can be performed in a conventional manner (Blood, 75, 40-47 (1990)). Human PBMC are isolated from heparinized venous blood obtained from healthy volunteers by Ficoll-Hypaque density centrifugation. The cells are cultured in RPMI1640 medium supplemented with 5% heat-inactivated fetal calf serum and antibiotics. PBMC (5×10E5 cells/mL) in 0.2 mL aliquot are pretreated with drugs in DMSO for 60 min at 37° C. in 96 well round-bottomed tissue culture plates. Thereafter, PBMC in the presence or absence of compound are stimulated with 1 mg/mL LPS from E. coli O55:B5 at a final concentration of 100 ng/mL. After overnight culture, the supernatants are harvested and assayed immediately for TNFα levels from each well. The concentration of TNFα in the supernatant is determined by human TNFα ELISA Kit according to the manufacture's directions.
Active compounds are characterized by the concentration of the compound that caused 50% inhibition of TNFα level (IC50).

Compound | IC50
Cc1c(Cc2ccccc2)c(=O)oc2cc(Oc3ncccn3)c(Cl)cc12 [Example 16, 2-oxo-2H-3-benzyl-4-methyl-6-chloro-7-(pyrimidin-2-yloxyl)-1-benzopyrane] | 6.8 µM
CN(C)C(=O)Oc1ccc2c(CCO)c(Cc3ccccc3)c(=O)oc2c1 [Example 4, dimethyl carbamic acid 2-oxo-2H-3-benzyl-4-(2-hydroxylethyl)-1-benzopyran-7-yl ester] | 2.1 µM
Cc1c(Cc2ccccc2)c(=O)oc2c(C=O)c(OC(=O)N(C)C)ccc12 [Example 6, dimethyl carbamic acid 2-oxo-2H-3-benzyl-4-methyl-8-formyl-1-benzopyran-7-yl ester] | 12.9 µM
Cc1c(Cc2ccccc2)c(=O)oc2cc(Oc3nccs3)ccc12 [Example 21, 2-oxo-3-benzyl-4-methyl-7-(thiazol-2-yloxyl)-2H-1-benzopyrane] | 9.1 µM
CCCc1c(Cc2ccc(F)cc2)c(=O)oc2cc(OC(=O)N(C)C)ccc12 [Example 7, dimethyl carbamic acid 2-oxo-2H-3-(4-fluorobenzyl)-4-n-propyl-1-benzopyran-7-yl ester] | 1.17 µM
CN(C)C(=O)Oc1ccc2c(-c3cccnc3)c(Cc3ccccc3)c(=O)oc2c1 [Example 8, dimethyl carbamic acid 2-oxo-2H-3-benzyl-4-(m-pyridyl)-1-benzopyran-7-yl ester] | 18.7 µM
CC(=O)Nc1cccc(Cc2c(C)c3cc(Cl)c(OC(=O)N(C)C)cc3oc2=O)c1 [Example 12, dimethyl carbamic acid 2-oxo-2H-3-(m-acetylamidobenzyl)-4-methyl-6-chloro1-benzopyran-7-yl ester] | < 0.6 µM
Cc1c(Cc2cccnc2)c(=O)oc2cc(Oc3ncccn3)c(Cl)cc12 [Example 17, 2-oxo-2H-3-(3-pyridylmethyl)-4-methyl-6-chloro-7-(pyrimidin-2-yloxyl)-1-benzopyrane] | 50 µM
Cc1c(Cc2ccccc2)c(=O)oc2cc(C(F)(F)C(=O)N(C)C)ccc12 [Example 24, 2-oxo-3-benzyl-4-methyl-7-(N,N-dimethylaminocarboxy-difluoromethyl)-1H-benzopyrane] | 10.4 µM
Cc1c(Cc2ccccc2)c(=O)oc2cc(OC(=O)N(C)C)ccc12 [Example 1, dimethyl carbamic acid 2-oxo-2H-3-benzyl-4-methyl-1-benzopyran-7-yl ester] | 0.36 µM
COc1cc2c(C)c(Cc3ccccc3)c(=O)oc2cc1OC(=O)N(C)C [Example 3, dimethyl carbamic acid 2-oxo-2H-3-benzyl-4-methyl-6-methoxy-1-benzopyran-7-yl ester] | 0.58 µM

same assay, conditions: human PBMC pretreated with drug 60 min, stimulated with LPS (E. coli O55:B5) 100 ng/mL, overnight culture, TNFα in supernatant by ELISA; listed as 14-25; read-out: 50% Inhibition of TNFα level (IC50)

Compound | IC50
CC(=O)Nc1cccc(Cc2c(C)c3cc(Cl)c(OC(=O)N(C)C)cc3oc2=O)c1 [Example 12, dimethyl carbamic acid 2-oxo-2H-3-(m-acetylamidobenzyl)-4-methyl-6-chloro1-benzopyran-7-yl ester] | 0.31 µM

same assay, conditions: human PBMC pretreated with drug 60 min, stimulated with LPS (E. coli O55:B5) 100 ng/mL, overnight culture, TNFα in supernatant by ELISA; read-out: 50% Inhibition of TNFα level (IC50)

Compound | IC50
CCOC(=O)CCC(=O)Nc1cccc(Cc2c(C)c3cc(Cl)c(Oc4ncccn4)cc3oc2=O)c1 [Example 20-28] | 1.2 µM
Cc1c(Cc2ccncc2)c(=O)oc2cc(OC(=O)N(C)C)ccc12 [Example 14-32] | 1.3 µM
Cc1c(Cc2cccc(N)c2)c(=O)oc2cc(OC(=O)N(C)C)c(Cl)cc12 [Example 14-24] | 0.46 µM
COc1ccc(Cc2c(C)c3ccc(OC(=O)N(C)C)cc3oc2=O)cc1 [Example 14-46] | 5.6 µM
COc1cccc(Cc2c(C)c3ccc(OC(=O)N(C)C)cc3oc2=O)c1 [Example 14-45] | 3.2 µM
Cc1c(Cc2cccc(N(C)C)c2)c(=O)oc2cc(OC(=O)N(C)C)ccc12 [Example 14-72] | 1.9 µM
CCc1c(Cc2ccccc2)c(=O)oc2cc(OC(=O)N(C)C)c(Cl)cc12 [Example 14-74] | 0.24 µM
CCc1c(Cc2cccc([N+](=O)[O-])c2)c(=O)oc2cc(Oc3ncccn3)c(Cl)cc12 [Example 20-55] | 6.4 µM
CCc1c(Cc2ccccc2)c(=O)oc2cc(OC(=O)N(C)C)ccc12 [Example 14-73] | 1.7 µM
Cc1c(Cc2ccccc2N)c(=O)oc2cc(OC(=O)N(C)C)c(Cl)cc12 [Example 14-20] | 0.49 µM
Cc1c(Cc2ccc(S(C)(=O)=O)cc2)c(=O)oc2cc(OC(=O)N(C)C)ccc12 [Example 14-43] | 6.6 µM
Cc1c(Cc2ccc(N)cc2)c(=O)oc2cc(OC(=O)N(C)C)ccc12 [Example 14-66] | 5.2 µM
Cc1c(Cc2cccc(N)c2)c(=O)oc2cc(OC(=O)N(C)C)cc(F)c12 [Example 14-6] | 1.6 µM
Cc1c(Cc2ccccc2)c(=O)oc2cc(OC(=O)N(C)C)c(Br)cc12 [Example 14-15] | 0.06 µM
CCc1c(Cc2cccc([N+](=O)[O-])c2)c(=O)oc2cc(OC(=O)N(C)C)ccc12 [Example 14-77] | 0.9 µM
Cc1c(Cc2ccccc2N)c(=O)oc2cc(OC(=O)N(C)C)ccc12 [Example 14-64] | 2.1 µM
Cc1c(Cc2cccc([N+](=O)[O-])c2)c(=O)oc2cc(OC(=O)N(C)C)c(Cl)cc12 [Example 14-23] | < 0.6 µM
CCc1cc2c(C)c(Cc3ccccc3)c(=O)oc2cc1OC(=O)N(C)C [Example 14-9] | 4.6 µM

Results, then the compound that gave them:

IC50 | Compound
9.7 µM | Cc1c(Cc2ccccc2)c(=O)oc2cc(Oc3ncccn3)cc(F)c12 [Example 20-14]
10.9 µM | CCc1c(Cc2ccccc2)c(=O)oc2cc(Oc3ncccn3)ccc12 [Example 20-49]
2.2 µM | CC(=O)CC(=O)Nc1cccc(Cc2c(C)c3cc(Cl)c(Oc4ncccn4)cc3oc2=O)c1 [Example 20-42]
0.27 µM | CCOC(=O)CC(=O)Nc1cccc(Cc2c(CC)c3ccc(Oc4nccs4)cc3oc2=O)c1 [Example 22-9]
8.2 µM | Cc1c(Cc2ccccc2)c(=O)oc2cc(C(O)c3ccsc3)ccc12 (centres unmarked) [Example 26-22]
5.4 µM | CC(=O)Nc1cccc(Cc2c(C)c3c(F)cc(Oc4ncccn4)cc3oc2=O)c1 [Example 20-39]
0.14 µM | CCOC(=O)CC(=O)Nc1cccc(Cc2c(C)c3c(F)cc(OC(=O)N(C)C)cc3oc2=O)c1 [Example 14-8]
9.5 µM | Cc1c(Cc2ccccc2)c(=O)oc2cc(Oc3ncccn3)c(Br)cc12 [Example 20-4]
2.8 µM | CCOC(=O)CCC(=O)Nc1cccc(Cc2c(C)c3ccc(Oc4ncccn4)cc3oc2=O)c1 [Example 20-21]
6.7 µM | CCc1c(Cc2cccc(NC(C)=O)c2)c(=O)oc2cc(Oc3ncccn3)ccc12 [Example 20-54]
5.9 µM | CCc1c(Cc2cccc(N)c2)c(=O)oc2cc(Oc3ncccn3)cc(F)c12 [Example 20-59]
10.1 µM | Cc1c(Cc2cccc([N+](=O)[O-])c2)c(=O)oc2cc(Oc3nccs3)cc(F)c12 [Example 22-3]
6.6 µM | CC(=O)Nc1cccc(Cc2c(C)c3ccc(Oc4ncccn4)cc3oc2=O)c1 [Example 20-20]
10.5 µM | Cc1c(Cc2ccccc2)c(=O)oc2cc(Oc3nccs3)ccc12 [Example 21, 2-oxo-3-benzyl-4-methyl-7-(thiazol-2-yloxyl)-2H-1-benzopyrane]
< 0.6 µM | CCOC(=O)CC(=O)Nc1cccc(Cc2c(C)c3cc(Cl)c(Oc4ncccn4)cc3oc2=O)c1 [Example 20-29]
3.1 µM | CC(=O)Nc1cccc(Cc2c(C)c3cc(Cl)c(Oc4ncccn4)cc3oc2=O)c1 [Example 20-43]
0.25 µM | CCOC(=O)CC(=O)Nc1cccc(Cc2c(C)c3ccc(Oc4nccs4)cc3oc2=O)c1 [Example 22-6]
1.8 µM | CCCCS(=O)(=O)Nc1cccc(Cc2c(C)c3cc(Cl)c(Oc4ncccn4)cc3oc2=O)c1 [Example 20-48]
9.8 µM | Cc1c(Cc2cccc(N)c2)c(=O)oc2cc(Oc3ncccn3)c(Cl)cc12 [Example 20-26]
< 0.6 µM | CCc1c(Cc2cccc(NC(C)=O)c2)c(=O)oc2cc(Oc3nccs3)ccc12 [Example 22-8]
1.7 µM | Cc1c(Cc2ccccc2)c(=O)oc2cc(C(F)C#N)ccc12 (centres unmarked) [Example 26-24]
6 µM | Cc1c(Cc2cccc(N)c2)c(=O)oc2cc(Oc3nccs3)ccc12 [Example 22-4]
2.5 µM | CCc1c(Cc2ccccc2)c(=O)oc2cc(Oc3nccs3)ccc12 [Example 22-10]
0.65 µM | CCOC(=O)CC(=O)Nc1cccc(Cc2c(CC)c3c(F)cc(Oc4ncccn4)cc3oc2=O)c1 [Example 20-61]
3.6 µM | CCc1c(Cc2cccc(NC(C)=O)c2)c(=O)oc2cc(Oc3ncccn3)c(Cl)cc12 [Example 20-57]
< 0.6 µM | Cc1c(Cc2cccc(NS(C)(=O)=O)c2)c(=O)oc2cc(Oc3ncccn3)c(Cl)cc12 [Example 20-41]
